Data as given in the NIST ThermoML archive (doi:10.1016/j.fluid.2007.08.008).
± gives the expanded uncertainty stated by the source.

Test: not given
Conditions: 298.15 K; 101.33 kPa; Liquid; Vibrating tube method

| Structure (SMILES) | mass density |
| --- | --- |
| CCCO [propan-1-ol] | 799.62 ± 0.14 kg/m3 |
| CCCOCCC [dipropyl ether] | 741.81 ± 13 kg/m3 |

Test: refractive index (Na D-line) (dimensionless)
Conditions: 298.15 K; 101.33 kPa; Liquid; Standard Abbe refractometry

| Structure (SMILES) | refractive index |
| --- | --- |
| O [water] | 1.3325 ± 0.004 |
| CCCO [propan-1-ol] | 1.3836 ± 0.004 |
| OCCO [1,2-ethanediol] | 1.4306 ± 0.004 |
| CCCOCCC [dipropyl ether] | 1.3784 ± 0.0045 |
